Data from publication PMC3019225, “Striatal Pre- and Postsynaptic Profile of Adenosine A2A Receptor Antagonists” (PLoS ONE, 2011).

Assays:
[1] = target: A1R in A1R-A2AR heteromers (Homo sapiens, UniProt P30542); settings: A2AR-A1R cells, [^3H]DPCPX 2 nM
[2] = tested on: striatal glutamate release induced by cortical electrical stimulation; parameters: method as in PMID 19936569; settings: intrastriatal perfusion; previous study; ref [5]; cited from earlier work
rats [3] = test: Motor output induced by cortical electrical stimulation (EMG recording, power correlation coefficient PCC); type: in vivo, rat; settings: for Dose significantly reducing PCC: i.p., PCC 40 min after administration
Protocol: (§1) Male Sprague-Dawley rats (Charles River Laboratories, Wilmington, MA) weighting between 300–350 g were used in these experiments. Rats were housed 2 per cage and they maintained at a temperature of 22±2°C on a regular 12-h light–dark cycle. Food and water were available ad libitum.
(§2) All drugs but MSX-3 (Sigma-Aldrich, St. Louis, MI) were provided by CHDI Foundation Inc. (Los Angeles, CA, US). SCH-420814 was administered subcutaneously (s.c.) at 1 ml/kg and the other drugs were administered via intraperitonal (i.p.) injection at volume of 2 ml/kg.
Rats were anesthetized with 3 ml/kg of Equithesin (4.44 g of chloral hydrate, 0.972 g of Na pentobarbital, 2.124 g of MgSO4, 44.4 ml of propylene glycol, 12 ml of ethanol and distilled H2O up to 100 ml of final solution; NIDA Pharmacy, Baltimore, MD) and implanted unilaterally with bipolar stainless steel electrodes, 0.15 mm in diameter (Plastics One, Roanoke, VA), into the orofacial area of the lateral agranular motor cortex (3 mm anterior, 3 and 4 mm lateral, and 4.2 mm below bregma). The electrodes and a head holder (connected to a swivel during stimulation) were fixed on the skull with stainless steel screws and dental acrylic resin. For the experiments with electromyographic (EMG) recording, electrodes were also implanted in mastication muscles (during the same surgical procedure). Two 5 mm-long incisions were made in the skin on the upper and lower jaw areas to expose the masseter and the lateral pterygoid muscles. […] The bare tips of the electrodes were then held in contact with the masseter and the lateral pterygoid muscles and the skin was closed with surgical staples. The other end of the recording electrodes was encased in a molded plastic pedestal with a round threaded post which was attached to an electrical swivel and then to a differential amplifier (Grass LP511, Grass Instruments, Warwick, RI). The pedestal was secured to the skull with dental cement together with the stimulation electrodes. For the in vivo microdialysis experiments, concentric microdialysis probes with 2-mm long dialysis membranes (Eicom Corp., Tokio, Japan) were implanted respectively into the striatum ipsilateral to the stimulation electrodes (0.0 mm AP, 4.5 ML and 7.0 mm DV).
Rats were placed in individual bowl chambers. Both stimulation electrodes and recording electrodes were attached using flexible shielded cabling to a four channel electrical swivel. Stimulation electrodes were connected to two-coupled constant current isolation units (PSIU6X, Grass Instruments West Warwick, RI) driven by an electrical stimulator (Grass S88X; Grass Instruments). The recording electrodes were connected to a differential amplifier (Grass LP511, West Warwick, RI). This configuration allows the rat to move freely while the stimulation and EMG recordings are taking place. After 60 min of habituation, biphasic current pulse trains (pulse of 0.1 ms at 120–200 µA; 100 Hz, 160 ms trains repeating once per 2 seconds) were delivered. The current intensity was adjusted to the threshold level, defined as the minimal level of current intensity allowing at least 95% of the stimulation pulses to elicit a positive EMG response. Positive EMG response was defined as at least 100% increase of the peak to peak amplitude respect to the background tonic EMG activity lasting more than 100 ms or at least 70% increase in the power of the EMG signal respect to the baseline. Positive EMG responses always matched observable small jaw movements. […]

[4] = target: T1, A2AR in A2AR-D2R heteromers (Homo sapiens, UniProt P29274); settings: for Reduction of the affinity of A2AR by co-transfection with D2R: A2AR-D2R cells versus A2AR cells; for DCB (dimer cooperativity index): A2AR-D2R cells, A2AR, [^3H]ZM-241385 2 nM
T1 sequence (P29274 whole entry): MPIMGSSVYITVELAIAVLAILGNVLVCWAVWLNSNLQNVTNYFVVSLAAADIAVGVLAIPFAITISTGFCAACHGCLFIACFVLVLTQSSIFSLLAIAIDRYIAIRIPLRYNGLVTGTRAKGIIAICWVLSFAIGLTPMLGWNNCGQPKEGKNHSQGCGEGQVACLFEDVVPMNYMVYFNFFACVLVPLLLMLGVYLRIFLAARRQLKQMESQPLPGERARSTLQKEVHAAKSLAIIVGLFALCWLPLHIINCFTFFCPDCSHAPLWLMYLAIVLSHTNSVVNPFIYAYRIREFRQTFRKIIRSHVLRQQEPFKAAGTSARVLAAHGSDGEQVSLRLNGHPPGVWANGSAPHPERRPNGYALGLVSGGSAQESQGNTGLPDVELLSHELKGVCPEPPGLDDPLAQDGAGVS
T1 sequence (P14416 whole entry partner): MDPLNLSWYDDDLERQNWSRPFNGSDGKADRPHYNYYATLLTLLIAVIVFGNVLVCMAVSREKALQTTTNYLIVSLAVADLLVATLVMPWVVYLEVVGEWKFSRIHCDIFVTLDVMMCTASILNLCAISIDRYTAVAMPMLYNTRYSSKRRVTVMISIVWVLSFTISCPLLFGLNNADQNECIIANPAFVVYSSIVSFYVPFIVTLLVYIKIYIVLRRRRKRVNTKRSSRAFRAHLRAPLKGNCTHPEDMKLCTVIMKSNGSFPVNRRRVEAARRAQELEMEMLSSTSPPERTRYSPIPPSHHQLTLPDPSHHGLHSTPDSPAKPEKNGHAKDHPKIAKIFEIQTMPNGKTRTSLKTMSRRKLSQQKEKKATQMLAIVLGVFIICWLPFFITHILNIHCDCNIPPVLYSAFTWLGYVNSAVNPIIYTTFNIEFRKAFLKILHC

A2AR [5] = target: T2, A2AR (Homo sapiens, UniProt P29274); test: biochemical
T2 sequence (P29274 whole entry): as the sequence (P29274 whole entry) above

[6] = target: T3, A2AR in A1R-A2AR heteromers (Homo sapiens, UniProt P29274); settings: A2AR-A1R cells, [^3H]ZM-241385 2 nM
T3 sequence (P29274 whole entry): as above
T3 sequence (P30542 whole entry partner): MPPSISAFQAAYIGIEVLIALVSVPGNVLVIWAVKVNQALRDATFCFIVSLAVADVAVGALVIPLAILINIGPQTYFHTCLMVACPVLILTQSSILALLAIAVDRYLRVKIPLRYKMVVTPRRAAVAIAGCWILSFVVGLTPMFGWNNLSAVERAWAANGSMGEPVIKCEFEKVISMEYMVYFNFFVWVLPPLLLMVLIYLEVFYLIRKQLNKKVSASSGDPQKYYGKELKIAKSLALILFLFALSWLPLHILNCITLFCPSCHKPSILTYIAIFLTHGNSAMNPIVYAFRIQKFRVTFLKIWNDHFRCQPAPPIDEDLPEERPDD

A2AR [7] = target: T2, A2AR; settings: A2AR cells; [^3H]ZM-241385 2 nM
[8] = target: T3, A2AR in A1R-A2AR heteromers; test: biochemical
[9] = target: T1, A2AR in A2AR-D2R heteromers; test: biochemical
rats [10] = test: Locomotor activity in habituated rats; type: in vivo, rat; settings: for Locomotor activation: 1 mg/kg i.p.; for Dose producing significant locomotor activation: i.p., 90 min after administration, habituated rats
Protocol: as §1, §2
Locomotor activity was measured by placing the animals individually in motility soundproof chambers (50×50 centimeters; Med Associates Inc., VT). Locomotion was measured by counting the number of breaks in the infrared beams of the chambers. The animals were placed in individual acrylic chambers at noon on the day of testing. A lamp inside each chamber remained lit during this period. Following 90 min of habituation, the rats were injected i.p. with different doses of each compound or vehicle and locomotor activity was recorded for 90 min after the drug or vehicle administration. All the animals were tested only once. The effect of different doses of the A2AR antagonists on locomotor activity were analyzed using a one-way analysis of variance (ANOVA), followed by Newman-Keuls' post-hoc test.

[11] = tested on: striatal glutamate release induced by cortical electrical stimulation; test: In vivo microdialysis with cortical electrical stimulation; parameters: species or system rat; settings: 1 mg/kg i.p.
Protocol: as §1
Rats were anesthetized with 3 ml/kg of Equithesin (4.44 g of chloral hydrate, 0.972 g of Na pentobarbital, 2.124 g of MgSO4, 44.4 ml of propylene glycol, 12 ml of ethanol and distilled H2O up to 100 ml of final solution; NIDA Pharmacy, Baltimore, MD) and implanted unilaterally with bipolar stainless steel electrodes, 0.15 mm in diameter (Plastics One, Roanoke, VA), into the orofacial area of the lateral agranular motor cortex (3 mm anterior, 3 and 4 mm lateral, and 4.2 mm below bregma). The electrodes and a head holder (connected to a swivel during stimulation) were fixed on the skull with stainless steel screws and dental acrylic resin. […]
The experiments were performed on freely moving rats 24 h after probe implantation. […] Glutamate content was measured by reverse-phase HPLC coupled to a flourimetric detector (Shimadzu Inc., Tokio, Japan). Glutamate values were transformed as percentage of the mean of the three values before the drug or vehicle injection and transformed values were statistically analyzed.

Sequence of A1R in A1R-A2AR heteromers (P29274 whole entry, the tested form may be a part): as the sequence (P29274 whole entry) above
Sequence of A1R in A1R-A2AR heteromers (P30542 whole entry, the tested form may be a part): as the sequence (P30542 whole entry partner) above

Reduction of the affinity of A2AR by co-transfection with D2R [4] | DCB (dimer cooperativity index) [4] | Kd (A2AR [5]) [nM] | DCB (dimer cooperativity index) [6] | DCB (dimer cooperativity index) (A2AR [7]) | Kd [8] [nM] | Kd [9] [nM] | Structure (SMILES) | Reduction of PCC (rats [3]; 1 mg/kg i.p.) | Dose significantly reducing PCC (rats [3]) [mg/kg] | Locomotor activation (rats [10]) | Dose producing significant locomotor activation (rats [10]) | Effect on striatal glutamate release induced by cortical stimulation [11] | further results
– | – | – | – | – | – | – | C[C@H](Cc1ccccc1)Nc1ncnc2c1ncn2[C@@H]1O[C@H](CO)[C@@H](O)[C@H]1O [R-PIA] | – | – | – | – | – | B50 (concentration providing half saturation) [1]: 30 ± 10 nM
– | – | – | – | – | – | – | C#CCn1c(=O)c2c(nc(/C=C/c3cccc(OC)c3)n2C)n(CCCOP(=O)(O)O)c1=O.[Na].[Na] [MSX-3, (E)-phosphoric acid mono-(3-{8-[2-(3-methoxyphenyl)vinyl]-7-methyl-2,6-dioxo-1-prop-2-ynyl-1,2,6,7-tetrahydropurin-3-yl}propyl) ester disodium salt] | – | – | – | – | – | Effect on striatal glutamate release induced by cortical electrical stimulation [2]: almost completely counteracted; Reduction of PCC (rats [3]; dose-response, Fig. 2): very effective reduction of PCC
two to about nine | 0 | 0.5 ± 0.1 | 0 | 0 | 1.1 ± 0.1 | 2.7 ± 0.8 | COCCOc1ccc(N2CCN(CCn3ncc4c3nc(N)n3nc(-c5ccco5)nc43)CC2)cc1 [SCH-420814, 2-(2-furanyl)-7-[2-[4-[4-(2-methoxyethoxy)phenyl]-1-piperazinyl]ethyl]-7H-pyrazolo[4,3-e][1], [2], [4]-triazolo[1,5-c]pyrimidin-5-amine] | – | – | – | – | – | –
– | – | – | – | – | – | – | CCn1c(=O)c2c(nc(/C=C/c3ccc(OC)c(OC)c3)n2C)n(CC)c1=O [KW-6002, (E)-1,3-diethyl-8-(3,4-dimethoxystyryl)-7-methyl-3,7-dihydro-1H-purine-2,6-dione] | did not reduce PCC | > 10 | pronounced locomotor activation | 0.3 mg/kg | did not modify | –
– | – | – | – | – | – | – | COc1ccc(CCCn2ncc3c2nc(N)n2nc(-c4ccco4)nc32)cc1 [SCH-442416, 2-(2-Furanyl)-7-[3-(4-methoxyphenyl)propyl]-7H-pyrazolo[4,3-e][1], [2], [4]triazolo[1,5-c]pyrimidin-5-amine] | strongly reduced PCC | 0.1 | did not induce locomotor activation | higher than 3 mg/kg | significantly counteracted | –
two to about nine | 0 | 3.2 ± 0.2 | 0 | 0 | 4.2 ± 0.3 | 7 ± 2 | C#CCn1c(=O)c2c(nc(/C=C/c3cccc(OC)c3)n2C)n(CCCO)c1=O [MSX-2, (E)-3-(3-hydroxypropyl)-8-[2-(3-methoxyphenyl)vinyl]-7-methyl-1-prop-2-ynyl-3,7-dihydropurine-2,6-dione] | – | – | – | – | – | –
